Laboratory results reported in ChEMBL document CHEMBL3885881, “DrugMatrix”.

Species: Rattus norvegicus
Experiment: DrugMatrix - Regimen: Daily Repeat
Assay type: toxicity, organism-based, Sprague-Dawley
Set-up: regimen Daily Repeat, gender Male, age 6-8 weeks
Conditions: in vivo, po, route oral GAVAGE, vehicle 100 % WATER; for ABSOLUTE BASOPHIL / ABSOLUTE EOSINOPHIL / ABSOLUTE LYMPHOCYTE / ABSOLUTE MONOCYTE / ABSOLUTE SEGMENTED NEUTROPHIL / BASOPHIL / EOSINOPHIL / ERYTHROCYTE COUNT / HEMATOCRIT / HEMOGLOBIN / LEUKOCYTE COUNT / LYMPHOCYTE / MEAN CORPUSCULAR HEMOGLOBIN / MEAN CORPUSCULAR HEMOGLOBIN CONCENTRATION / MEAN CORPUSCULAR VOLUME / MONOCYTE / NEUTROPHIL / NUCLEATED RED BLOOD CELLS / PLATELET COUNT: tissue Blood; for ALANINE AMINOTRANSFERASE / ALBUMIN / ALKALINE PHOSPHATASE / ASPARTATE AMINOTRANSFERASE / BLOOD UREA NITROGEN / CARBON DIOXIDE / CHLORIDE / CHOLESTEROL / CREATINE PHOSPHOKINASE / CREATININE / GLUCOSE / LACTATE DEHYDROGENASE / LIPASE / PHOSPHORUS / POTASSIUM / SODIUM / TOTAL BILIRUBIN / TOTAL PROTEIN / URIC ACID: tissue Plasma
[1] = 1 mg/kg, 120 h, dose level Low, time 5 day
[2] = 175 mg/kg, 72 h, dose level High, time 3 day
[3] = 175 mg/kg, 120 h, dose level High, time 5 day

CN1C2CCCC1CC(NC(=O)c1nn(C)c3ccccc13)C2 (centres undefined) [GRANISETRON]
ABSOLUTE BASOPHIL [1]: 0 CELLS/uL
ABSOLUTE EOSINOPHIL [1]: 0 CELLS/uL
ABSOLUTE LYMPHOCYTE [1]: 8153 CELLS/uL
ABSOLUTE MONOCYTE [1]: 97.67 CELLS/uL
ABSOLUTE SEGMENTED NEUTROPHIL [1]: 549.33 CELLS/uL
BASOPHIL [1]: 0%
EOSINOPHIL [1]: 0%
ERYTHROCYTE COUNT [1]: 5.09 x10E6/uL
HEMATOCRIT [1]: 31.63%
HEMOGLOBIN [1]: 12.5 G/DL
LEUKOCYTE COUNT [1]: 8.8 x10E3/uL
LYMPHOCYTE [1]: 92.67%
MEAN CORPUSCULAR HEMOGLOBIN [1]: 24.53 pg
MEAN CORPUSCULAR HEMOGLOBIN CONCENTRATION [1]: 39.6 G/DL
MEAN CORPUSCULAR VOLUME [1]: 62.03 fL
MONOCYTE [1]: 1%
NEUTROPHIL [1]: 6.33%
NUCLEATED RED BLOOD CELLS [1]: 0.67 /100WBC
PLATELET COUNT [1]: 832 x10E3/uL
ALANINE AMINOTRANSFERASE [1]: 51 u/L
ALBUMIN [1]: 4.2 G/DL
ALKALINE PHOSPHATASE [1]: 374 u/L
ASPARTATE AMINOTRANSFERASE [1]: 84.33 u/L
BLOOD UREA NITROGEN [1]: 16 mg/dL
CARBON DIOXIDE [1]: 31 mmol/L
CHLORIDE [1]: 101.67 MEQ/L
CHOLESTEROL [1]: 74.33 mg/dL
CREATINE PHOSPHOKINASE [1]: 215.67 u/L
CREATININE [1]: 0.16 mg/dL
GLUCOSE [1]: 149.33 mg/dL
LACTATE DEHYDROGENASE [1]: 154 u/L
LIPASE [1]: 9 u/L
PHOSPHORUS [1]: 10.23 mg/dL
POTASSIUM [1]: 5.82 MEQ/L
SODIUM [1]: 145 MEQ/L
TOTAL BILIRUBIN [1]: 0.23 mg/dL
TOTAL PROTEIN [1]: 6.23 G/DL
URIC ACID [1]: 0.7 mg/dL
ABSOLUTE BASOPHIL [2]: 0 CELLS/uL
ABSOLUTE EOSINOPHIL [2]: 0 CELLS/uL
ABSOLUTE LYMPHOCYTE [2]: 10622.67 CELLS/uL
ABSOLUTE MONOCYTE [2]: 19.67 CELLS/uL
ABSOLUTE SEGMENTED NEUTROPHIL [2]: 557.67 CELLS/uL
BASOPHIL [2]: 0%
EOSINOPHIL [2]: 0%
ERYTHROCYTE COUNT [2]: 5.65 x10E6/uL
HEMATOCRIT [2]: 35.33%
HEMOGLOBIN [2]: 13.77 G/DL
LEUKOCYTE COUNT [2]: 11.2 x10E3/uL
LYMPHOCYTE [2]: 93.67%
MEAN CORPUSCULAR HEMOGLOBIN [2]: 24.43 pg
MEAN CORPUSCULAR HEMOGLOBIN CONCENTRATION [2]: 38.93 G/DL
MEAN CORPUSCULAR VOLUME [2]: 62.63 fL
MONOCYTE [2]: 0.33%
NEUTROPHIL [2]: 6%
NUCLEATED RED BLOOD CELLS [2]: 0 /100WBC
PLATELET COUNT [2]: 1057.67 x10E3/uL
ALANINE AMINOTRANSFERASE [2]: 72.67 u/L
ALBUMIN [2]: 4 G/DL
ALKALINE PHOSPHATASE [2]: 502.33 u/L
ASPARTATE AMINOTRANSFERASE [2]: 95 u/L
BLOOD UREA NITROGEN [2]: 13 mg/dL
CARBON DIOXIDE [2]: 33 mmol/L
CHLORIDE [2]: 100 MEQ/L
CHOLESTEROL [2]: 75.67 mg/dL
CREATINE PHOSPHOKINASE [2]: 557.67 u/L
CREATININE [2]: 0.12 mg/dL
GLUCOSE [2]: 149.33 mg/dL
LACTATE DEHYDROGENASE [2]: 186 u/L
LIPASE [2]: 10 u/L
PHOSPHORUS [2]: 11.47 mg/dL
POTASSIUM [2]: 5.72 MEQ/L
SODIUM [2]: 145.1 MEQ/L
TOTAL BILIRUBIN [2]: 0.17 mg/dL
TOTAL PROTEIN [2]: 5.83 G/DL
URIC ACID [2]: 0.5 mg/dL
ABSOLUTE BASOPHIL [3]: 0 CELLS/uL
ABSOLUTE EOSINOPHIL [3]: 0 CELLS/uL
ABSOLUTE LYMPHOCYTE [3]: 7981.33 CELLS/uL
ABSOLUTE MONOCYTE [3]: 176.67 CELLS/uL
ABSOLUTE SEGMENTED NEUTROPHIL [3]: 675.33 CELLS/uL
BASOPHIL [3]: 0%
EOSINOPHIL [3]: 0%
ERYTHROCYTE COUNT [3]: 5.68 x10E6/uL
HEMATOCRIT [3]: 35.93%
HEMOGLOBIN [3]: 13.87 G/DL
LEUKOCYTE COUNT [3]: 8.83 x10E3/uL
LYMPHOCYTE [3]: 90%
MEAN CORPUSCULAR HEMOGLOBIN [3]: 24.47 pg
MEAN CORPUSCULAR HEMOGLOBIN CONCENTRATION [3]: 38.67 G/DL
MEAN CORPUSCULAR VOLUME [3]: 63.37 fL
MONOCYTE [3]: 2%
NEUTROPHIL [3]: 8%
NUCLEATED RED BLOOD CELLS [3]: 0 /100WBC
PLATELET COUNT [3]: 1308.33 x10E3/uL
ALANINE AMINOTRANSFERASE [3]: 86.67 u/L
ALBUMIN [3]: 4.03 G/DL
ALKALINE PHOSPHATASE [3]: 415.33 u/L
ASPARTATE AMINOTRANSFERASE [3]: 102 u/L
BLOOD UREA NITROGEN [3]: 16.67 mg/dL
CARBON DIOXIDE [3]: 31.33 mmol/L
CHLORIDE [3]: 100.33 MEQ/L
CHOLESTEROL [3]: 67.33 mg/dL
CREATINE PHOSPHOKINASE [3]: 224.33 u/L
CREATININE [3]: 0.19 mg/dL
GLUCOSE [3]: 146.33 mg/dL
LACTATE DEHYDROGENASE [3]: 136.33 u/L
LIPASE [3]: 11.67 u/L
PHOSPHORUS [3]: 11.97 mg/dL
POTASSIUM [3]: 5.51 MEQ/L
SODIUM [3]: 146.57 MEQ/L
TOTAL BILIRUBIN [3]: 0.17 mg/dL
TOTAL PROTEIN [3]: 5.6 G/DL
URIC ACID [3]: 0.57 mg/dL
